What all share (assay type): cell-based
In assay [1] the test system is NCI-H460. Kind of assay: Cell cycle DNA content assay (flow cytometry). The settings on record: Homo sapiens, 24 h; NCI-H460, Lung, Parent line; read-out: EC50 @ 24 hours, ≧4N DNA content. The protocol:
(§1) NCI-H460 parental and NCI-H460 taxol-resistant cells were seeded at a density of 500,000 cells/well in a 6-well plate in 2 mL of appropriate complete media. The next day cells were treated with AMG 900 or taxol over a 6-point concentration range with a final DMSO concentration of 0.05% in media. After 24 hours, cells were pulsed with BrdU (1:100 dilution) and harvested. Cells were centrifuged at 1600 rpm for 4 minutes and the supernatant was aspirated. Cells were washed in 1× PBS and fixed in 900 μL of ice cold 90% methanol and stored at −20° C. Fixed cells were centrifuged at 2000 rpm for 4 minutes to remove 90% methanol. Cells were washed with 200 μL of wash buffer and stained with 200 μL of propidium iodide (PI) overnight at 4° C. in the dark. Data was acquired and analyzed by flow cytomety (LSRII). A threshold gate was applied according to +4N (same as ≧4N) DNA content and SubG1 positive populations based on DMSO-treated control and low/high drug-treated groups. The data was represented as a percentage of +4N DNA and SubG1 positive subpopulations. The +4N (same as ≧4N) DNA content or SubG1 cellular EC50 values were calculated using a 4-parameter equation. Lung tumor cell lines were treated with control (DMSO), AMG 900 or taxol over a 6-point dose range for 24 hours. Flow cytometric-based cell cycle analysis was performed to measure the percentage of ≧4N DNA content or SubG1 DNA content positive cells. The dose-response curves for AMG 900 represent the drug concentration plotted against the percentage of ≧4N DNA content positive cells. The dose-response curves for taxol represent the drug concentration plotted against the percentage of SubG1 DNA content positive cells. The EC50 values were calculated by 4-parameter fit model.
(In flow cytometry, cells or beads pass a laser one at a time.)

For the next assay, the system named is NCI-H460-Taxol-r. Kind of assay: Cell cycle DNA content assay (flow cytometry). The settings on record: Homo sapiens, 24 h, Lung, Paclitaxel-selected, read-out: EC50 @ 24 hours, ≧4N DNA content. Here is the method:
as §1

A further assay deals with A549. Kind of assay: Antiproliferative assay (ArrayScan VTi). The conditions noted are these: Homo sapiens; A549 (Lung); 24 h treatment, then 48 h without compound. Here is the method: (§2) Tumor cells were seeded in a Packard View 96-well plate in 100 μL of appropriate complete media at a density of 3000 or 5000 cells/well depending on the cell line growth kinetics (broadly defined as slow vs. fast). All dilutions were performed using Biomek FX workstation. The next day cells were treated with AMG 900 (11-point dose range 0.156 to 0.0003 μM) with a final DMSO concentration of 0.12% in media. After 24 hours, the media containing compound was removed and the cells were washed with complete media. The cells were then incubated in 100 μL of fresh complete media (without compound) for 48 hours. After 48 hours, the cells were fixed by adding 100 μL of fixation buffer to 100 μL of complete media. The cells were incubated at room temperature for 10 minutes. The fixation buffer was aspirated and the cells were then permeabilized in 100 μL wash buffer for 30 minutes at room temperature followed by the addition of 100 μL of DNA stain buffer and incubated at room temperature for 30 minutes in the dark. Next, the cells were washed with 100 μL of wash buffer and stored in 100 μL 1×PBS at 4 degrees Celsius until analysis. Cellular data was attained by scanning the 96-well plates on an ArrayScan VTi imaging system (Cellomics). Quantification of individual cell nuclear area and intensity was performed based on Hoechst 33342 DNA dye fluorescence. A threshold on the nuclear area based on the DMSO-treated control well was set to quantify the number of normal size nuclei from nuclear debris and polyploidy cells. This threshold value was applied to enumerate the number of normal nuclei in six image fields/well using a magnification of 10×. The dose-concentration curves and EC50 values were calculated using a 4-parameter equation.

A further assay has as its system HT29. Kind of assay: Antiproliferative assay (ArrayScan VTi). The conditions noted are these: Homo sapiens, HT-29; HT29 (Colon); 24 h treatment, then 48 h without compound. The protocol:
as §2

Assay [2] relates to NCI-H460. Kind of assay: Antiproliferative assay (ArrayScan VTi). The conditions noted are these: Homo sapiens; NCI-H460 (Lung); 24 h treatment, then 48 h without compound. Here is the method: as §2
A further assay relates to SW620. Kind of assay: Antiproliferative assay (ArrayScan VTi). The settings on record: Homo sapiens, SW-620; SW620 (Colon); 24 h treatment, then 48 h without compound. The protocol: as §2
For another assay, the system named is DU145. Kind of assay: Antiproliferative assay (ArrayScan VTi). The settings on record: Homo sapiens, DU-145; DU145 (Prostate); 24 h treatment, then 48 h without compound. Here is the method:
as §2

A further assay deals with HCT 116_JH_p21−/−. Nature of the assay: Antiproliferative assay (ArrayScan VTi). The settings on record: Homo sapiens; HCT 116_JH_p21−/− (Colon); 24 h treatment, then 48 h without compound. Here is the method:
as §2

A further assay has as its system 769P. Kind of assay: Antiproliferative assay (ArrayScan VTi). The settings on record: Homo sapiens; 769P* (Kidney), paclitaxel-resistant; 24 h treatment, then 48 h without compound. Here is the method: as §2
The next assay has as its system HOP-62. Kind of assay: Antiproliferative assay (ArrayScan VTi). The conditions noted are these: Homo sapiens; HOP-62 (Lung); 24 h treatment, then 48 h without compound. The protocol:
as §2

Another assay concerns SK-HEP-1. Kind of assay: Antiproliferative assay (ArrayScan VTi). The conditions noted are these: Homo sapiens, SK-HEP1; SK-HEP-1 (Liver); 24 h treatment, then 48 h without compound. Here is the method:
as §2

In the next assay the test system is HOP-92. Kind of assay: Antiproliferative assay (ArrayScan VTi). The conditions noted are these: Homo sapiens; HOP-92 (Lung); 24 h treatment, then 48 h without compound. The protocol: as §2
The test system of a further assay is HCT15. Nature of the assay: Antiproliferative assay (ArrayScan VTi). The settings on record: Homo sapiens, HCT-15; HCT15* (Colon), paclitaxel-resistant; 24 h treatment, then 48 h without compound. Here is the method: as §2
For the next assay, the system named is MES-SA Dx5. Kind of assay: Antiproliferative assay (ArrayScan VTi). The settings on record: Homo sapiens; MES-SA Dx5* (Uterine), paclitaxel-resistant; 24 h treatment, then 48 h without compound. Here is the method: as §2
In a further assay the test system is BT549. Kind of assay: Antiproliferative assay (ArrayScan VTi). The conditions noted are these: Homo sapiens, BT-549; BT549 (Breast); 24 h treatment, then 48 h without compound. The protocol:
as §2

For a further assay, the system named is CAL51. Nature of the assay: Antiproliferative assay (ArrayScan VTi). The settings on record: Homo sapiens, CAL-51; CAL51 (Breast); 24 h treatment, then 48 h without compound. The protocol:
as §2

The test system of a further assay is HCT 116_JH_p21+/+. Kind of assay: Antiproliferative assay (ArrayScan VTi). The conditions noted are these: Homo sapiens; HCT 116_JH_p21+/+ (Colon); 24 h treatment, then 48 h without compound. Here is the method: as §2

Drawing on patent US20120028917A1, “Use Of N-(4-((3-(2-Amino-4-Pyrimidinyl)-2-Pyridinyl)Oxy)Phenyl)-4-(4-Methyl-2-Thienyl)-1-Phthalazinamine In The Treatment Of Antimitotic Agent Resistant Cancer” (Amgen Inc., priority 2009, published 2012), this text covers EC50 for 1 molecule.

One may read the EC50 as the concentration at which the effect is half-maximal.

For `Cc1csc(-c2nnc(Nc3ccc(Oc4ncccc4-c4ccnc(N)n4)cc3)c3ccccc23)c1` [AMG 900, N-(4-((3-(2-amino-4-pyrimidinyl)-2-pyridinyl)oxy)phenyl)-4-(4-methyl-2-thienyl)-1-phthalazinamine], the EC50 was found to be 1 nM with NCI-H460 [1]; 1 nM in the assay with NCI-H460-Taxol-r; 1 nM in the assay on A549; 5 nM in the assay on HT29; 1 nM in the assay on NCI-H460 [2]; 2 nM with SW620. Moreover, the EC50 worked out at 2 nM with DU145; 1 nM with HCT 116_JH_p21−/−; 2 nM in the assay on 769P; 2 nM with HOP-62; 1 nM with SK-HEP-1; 2 nM in the assay on HOP-92. The EC50 was 2 nM with HCT15; 1 nM in the assay on MES-SA Dx5; 4 nM with BT549; 2 nM in the assay on CAL51; 1 nM in the assay on HCT 116_JH_p21+/+.
